Assay results: patent publication US12714671B2, “Cell membrane lipid-extracted nanoparticles (CLENs) for selective targeting, image analysis and cancer therapy” (priority 2018, dated 2026)
Counter-ions that a name gives are not always drawn.

Test system: 4T1 cells
Test: Cytotoxicity of doxorubicin-loaded CLENs (SRB assay)
Type: cell-based, murine
Details: 24 h, free doxorubicin 0.5 μmol/ml
Experimental: 4T1 cells were seeded at 1×10^4 per ml in a 48-well plate. Cells were exposed to different concentrations of doxorubicin-loaded CLENs (4T1, BT-20, and SKBR-3). SRB assay was used to determine percent of cell viability 24 hours following exposure to doxorubicin (5 mol %). Error bars indicate mean±S.D. (n=6).
Sulforhodamine B (SRB) assay was used to determine percent viability of control based on the amount of basic proteins in viable cells following exposure to different CLENs. Cells were seeded at 1×10^4 per ml in a 48-well plate. Columns of cells in the 48 well plate were exposed to either doxil, free doxorubicin, SKBR-3, BT-20 or 4T1 CLENs-loaded with doxorubicin (5 mol %). […] Finally, 1 mL of 1×PBS was added to each well and the plate was analyzed using a fluorescence microplate reader. The fluorescence intensity was measured at excitation wavelength of 540/20 nm and emission wavelength of 590/20 nm using FLX 800 Fluorescence Microplate Reader (Bio-tech Instruments, Winooski, VT).
Enhanced cellular uptake and selective drug targeting are important features of a drug delivery system, but how each translates overall to therapy is critical to success. For this reason, cytotoxicity of three different doxorubicin-loaded CLENs was evaluated for 4T1, BT-20 and SKBR-3 variety, doxil, and free doxorubicin (0.5 μmol/ml) against the growth of 4T1 cells in vitro. […]

Structure (SMILES): COc1cccc2c1C(=O)c1c(O)c3c(c(O)c1C2=O)C[C@@](O)(C(=O)CO)C[C@@H]3O[C@H]1C[C@H](N)[C@H](O)[C@H](C)O1 [free doxorubicin, Doxorubicin hydrochloride]
- cytotoxicity against growth of 4T1 cells (comparison in words): No significant difference in cytotoxicity
